Measurements: patent US9051309B2, “3,5-disubstituted-1,3,4-oxadiazol-2(3H)-ones and compositions and methods for controlling nematode pests” (Monsanto Technology LLC, priority 2013, dated 2015)
Marks after values point to notes of the source that are not given here.

What was measured:
[1] = tested on: soybean cyst nematode (SCN); assay: SCN greenhouse sand assay on soybean plants; format: in vivo; conditions: SCN eggs about four hours after application, rated 28 days after egg inoculation
Experimental: (§1) First, a concentrate was prepared by dissolving 2 milligrams of the test compound in 2 mL of an acetone solvent. Test solutions were then prepared by combining an appropriate amount of the concentrate with an aqueous surfactant solution comprising TRITON X100 (0.05%).
A similar experiment was conducted with regard to control of soybean cyst nematode (SCN) on soybean plants. Soybean seeds were planted in a media consisting of 80% sand and 20% silt loam soil (v/v) in two inch square plastic pots. […] Approximately four hours after application of the nematicidal test solution, the nematode soybean cyst nematode (SCN) eggs were applied using the procedure described above. The soybean plants were rated for root galling 28 days after the egg inoculation.

[2] = tested on: Meloidogyne incognita nematodes; assay: Miniaturized greenhouse nematicidal efficacy assay on cucumber seedlings in sand vials (root gall rating); conditions: 500 M. incognita eggs, harvest 10 to 12 days after inoculation, average of triplicate ratings
Experimental: A miniaturized greenhouse assay was conducted to study the effects of several 3,5-disubstituted-1,3,4-oxadiazol-2(3H)-one compounds on Meloidogyne incognita nematodes.
Cucumber seeds were sprouted for 3 days in moist paper towels. Acceptable sprouts were 3 to 4 cm long, with several lateral roots just emerging.
Each test solution was evaluated in triplicate. Dry sand (10 mL) was added to each vial. Seedlings were planted by tilting the vial and laying the seedling in the correct orientation so that the cotyledons were just above the sand, and then tilting back to cover the radicles with sand. A sample of the test solution (3.3 mL) was then added to each vial, and the vials were placed in racks under fluorescent light banks. The vials were inoculated two days after planting by adding 500 vermiform M. incognita eggs to each vial in deionized or spring water (50 μL). The vials were then kept under the fluorescent lamps at ambient room temperature and watered as needed with deionized water (1 mL), usually twice during duration of test.
Harvest of the cucumber plants was performed 10 to 12 days after inoculation by washing sand off the roots. A root gall rating was assigned using the following Gall rating scale (Gall: % root mass galled): 0=0-5%; 1=6-20%; 2=21-50%; and 3=51-100%.
Comparative solutions comprising other commercially available nematicidal compounds were also evaluated as controls.

root knot nematode (RKN) [3] = assay: RKN greenhouse soil assay on cucumber plants (7 day longevity test); format: in vivo; conditions: inoculated 7 days after application, root galling rated 14 days after egg inoculation, galling reduction relative to control blank
Experimental: as §1
Cucumber seeds were planted in a sandy soil mixture in two inch square plastic pots. When the cotyledons were fully opened and just as the first leaf began to emerge, usually 7 days after planting, a nematicidal test solution was applied to each pot. Five milliliters of the appropriate chemical solution was pipetted to the media surface, making sure to avoid contact with the base of the plant. Immediately following chemical application, using a mist nozzle, the pot surface was wetted sufficiently to saturate the pot, effectively watering the test solution into the soil.
Seven days following application of the test solution, each pot was inoculated with root knot nematode (RKN) eggs. A nematode egg slurry was prepared by adding RKN nematode eggs to distilled water to create a concentration of 1000 vermiform eggs […] of water. […]
The cucumber plants were rated for root galling 14 days after the egg inoculation. […] A commercially available nematicide, fenamiphos, was also evaluated for comparison.

root knot nematode (RKN) [4] = assay: Seed treatment on cucumber for RKN control; format: in vivo; conditions: 1000 root knot eggs five days after planting, galling rated 14 days after inoculation, versus untreated blank
Experimental: The excess of 30% by weight of test compound was added for each treatment that would equal 130% of the desired rate to assure target seed loading. The test compound (the amount as described in Table 3A below) and surfactant (optional) were dissolved in 3 mL acetone. AGRIMER VA-6 inert polymer was added at a concentration of 15% of the total test compound weight. Seeds were placed in the drum of the batch lab treater. The drum was rotated. The solutions of test compositions as described above were pipette onto seeds. The drum continued to rotate until the seed were dry.
3 inch by 3 inch plastic pots were filled with a media consisting of 80% sand and 20% silt loam soil (v/v). Treated cucumber seeds were planted ½ inch below the soil surface. Pots were watered as needed. Five days after planting the cucumber plants had the first true leaf emerging and each pot was inoculated with 1000 vermiform root knot eggs. The cucumber plants were rated for root galling 14 days after inoculation. The gall ratings were scored on a scale of 0-100 where, 0=no galls and 100=completely galled. Percent control was determined by comparison to the blank (untreated).

[5] = 40 ppm, scale 0=0-5%, 1=6-20%, 2=21-50%, 3=51-100% root mass galled

Molecule	gall ratings ([2]; 1 ppm, scale 0-3)	gall ratings ([2]; 8 ppm, scale 0-3)	gall ratings [2, 5]	other results
CNC(=O)O/N=C(\SC)C(=O)N(C)C [Oxamyl, reference compound]				Percent Control ([1]; application rate 0.1 kg/ha): 59^a Percent; Percent Control ([1]; application rate 0.25 kg/ha): 79^a Percent
O=c1oc(-c2cccs2)nn1-c1ccc(F)cc1 [Formula Ia-iv, 3-(4-fluorophenyl)-5-(thiophen-2-yl)-1,3,4-oxadiazol-2(3H)-one]	3.00	2.00	1.33	
O=c1oc(-c2ccco2)nn1-c1ccc(Cl)cc1 [Formula Ia-v, 3-(4-chlorophenyl)-5-(furan-2-yl)-1,3,4-oxadiazol-2(3H)-one]	1.67	1.00	0.33	
O=c1oc(-c2ccc(Cl)cc2)nn1-c1cccs1 [Formula IIa-iv, 5-(4-chlorophenyl)-3-(thiophen-2-yl)-1,3,4-oxadiazol-2(3H)-one]	3.00	1.67	1.00	
O=c1oc(-n2cccc2)nn1-c1ccc(Cl)cc1 [Formula Ic-ii, 3-(4-chlorophenyl)-5-(1H-pyrrol-1-yl)-1,3,4-oxadiazol-2(3H)-one]	2.33	1.67	1.00	
O=c1oc(-c2cccs2)nn1-c1ccc(Cl)cc1 [Formula Ia-iii, 3-(4-chlorophenyl)-5-(thiophen-2-yl)-1,3,4-oxadiazol-2(3H)-one]	0.00	0.33	0.00	Percent Control (root knot nematode (RKN) [3]; application rate 0.1 kg/ha): 63^a Percent; Percent Control (root knot nematode (RKN) [3]; application rate 0.25 kg/ha): 70^a Percent; Percent Control ([1]; application rate 0.1 kg/ha): 29^a Percent; Percent Control ([1]; application rate 0.25 kg/ha): 56^a Percent; Percent Control (root knot nematode (RKN) [4]; seed treatment 0.1 mg a.i./seed): 12^b Percent; Percent Control (root knot nematode (RKN) [4]; seed treatment 0.25 mg a.i./seed): 25^b Percent; Percent Control (root knot nematode (RKN) [4]; seed treatment 0.5 mg a.i./seed): 62^a Percent
Abamectin [reference compound]	1.67^b			Percent Control (root knot nematode (RKN) [4]; seed treatment 0.2 mg a.i./seed): 37^a Percent
O=c1oc(-c2ccco2)nn1-c1ccccc1 [Formula Ia-ii, 5-(furan-2-yl)-3-phenyl-1,3,4-oxadiazol-2(3H)-one]	3.00	1.33	0.00	
O=c1oc(-n2cccc2)nn1-c1ccccc1 [Formula Ic-i, 3-phenyl-5-(1H-pyrrol-1-yl)-1,3,4-oxadiazol-2(3H)-one]		0.33	0.00	
O=c1oc(-c2cccs2)nn1-c1ccccc1 [Formula Ia-i, 3-phenyl-5-(thiophen-2-yl)-1,3,4-oxadiazol-2(3H)-one]		2.00	1.00	
